Laboratory results published in patent US20230365938A1, “METHODS OF FORMING COMPOSITIONS CONTAINING COLLAGEN” (priority 2019, published 2023).

Assays:
hMSC secretome = experiment: LC-MS/MS analysis of secreted proteins in the secretome; format: cell-based, human; conditions: n=4; for number of down-regulated proteins (Fold ≤ 1.5) vs control / number of up-regulated proteins (Fold ≥ 1.5) vs control: vs DMSO under normoxia
Protocol: (§1) Human mesenchymal stem cells (hMSC) were obtained from American Type Culture Collection (ATCC, Manassas, VA). Cells were stored in liquid nitrogen until use. MSCs were maintained in minimum essential medium, alpha (aMEM, Corning®, Corning, NY) supplemented with 16% Fetal Bovine Serum (FBS, VWR, Radnor, PA) and 4 mM L-glutamine (Sigma-Aldrich, St. Louis, MO). Medium was changed every other day, and once the cells reached 70-80% confluence, the cells were detached by trypsin-EDTA solution (VWR, Radnor, PA). hMSC were seeded (density 5,000 cells/cm^2) on 25 cm^2. When cells reached 80% confluency (4-5 days), they were washed two times with 5 ml of PBS. The growth media was then changed to serum-free media with or without a product treatment (5 ml), and the cells were cultured for 48 hours. Experiments were performed in two different environments, normoxia (about 18.6% oxygen) and hypoxia (5% oxygen). Cells were incubated at 37° C. and 5% CO2 throughout the experiment.
To characterize the hMSC secretome, condition media (CM or secretome) was collected from cells cultured under FBS-free for 48 hours. CM was filtered through a 0.45 μm syringe filter to remove residual cells and cell debris. The resulting condition media was concentrated and washed 3 times with 50 mM ammonium bicarbonate using Corning® Spin-X® UF Concentrators (10K Dalton, Corning®, Corning, NY) at 3,000 g for 25 minutes each cycle. Following, the secretome was collected from the concentrator, frozen at −80° C., and lyophilized 24 hours. Lyophilized secretome was stored at −80° C. For functional experiments with CM, normal hMSCs (passages 6-8) were used.
The amount of secretome was normalized in all samples, and 50 μl of the sample were pipetted in microcentrifuge units (Millipore, Burlington, MA) and digested following the filter aided sample preparation (FASP) protein digestion kit from Expedeon (San Diego, CA). Samples were reduced using 0.1 M dithiothreitol for 15 minutes at 50° C. […] was achieved using iodoacetamide for 20 minutes at room temperature following by 2× washing steps with 8 M urea and 50 mM ammonium bicarbonate. The samples were then enzymatically digested with trypsin at 37° C. overnight. Finally, samples were collected by spinning the microcentrifuge units at 14000 rcf for 20 minutes with a final wash with distilled water and freeze-dried. Prior to LC-MS/MS analysis, samples were resuspended in 0.1% formic acid.
Mass spectrometry analysis was executed in the orbitrap Thermo Velos Pro system (Thermo Fisher Scientific, Waltman, MA) using Thermo Xcalibur™ Roadmap software (Thermo Fisher Scientific, Waltman, MA). For this study, secretome from 4 independent experiments were processed and analyzed independently.
Mass spectra were analyzed using Proteome Discoverer™ 2.1 (Thermo Fisher Scientific, Waltman, MA) label-free differential protein expression analysis and the Sequest™ HT. Xcalibur™ raw data collected from the mass spectrometer was imported from the MS spectra and processed as followed. Only features compromising charges of 2+ and 3+ were selected. The mass precision was 2 ppm and mass tolerance 0.02 Da for fragment mass tolerance. Trypsin was set as the digestion enzyme with a maximum of two allowed missed cleavages with six as the minimum peptide length. Cysteine carbamidomethylation (C) was set as a fixed modification, and N-terminal acetylation and methionine oxidation were allowed as variable modifications. The spectra were searched using the Sequest™ HT search engine against the human Uniprot sequence database. Percolator node was used to filter data using 0.1 for FDR at the peptide and protein level. For relative quantification in a label-free analysis, the precursor ion area detector node was used, and ratios were calculated by dividing the treated samples vs. the control group (DMSO under normoxia). […]

[1] = test system: Human mesenchymal stem cells (hMSC); experiment: Cell proliferation (MTS) of hMSC treated with RSV, NAM or RSV+NAM; format: cell-based; conditions: 48 hours, serum-free media, normoxia, increasing dose, vs DMSO control
Protocol: as §1, with “[…] Cell proliferation was assessed using CellTiter 96® AQueous Non-Radioactive Cell Proliferation Assay (MTS, Promega, Madison WI) based on the redox conversion of a tetrazolium salt into formazan product. […] The cells” for “Experiments were performed in two different environments, normoxia (about 18.6% oxygen) and hypoxia (5% oxygen). Cells”, “incubated for 2 hours, and the absorbance of each well” for “incubated”, “490 nm was measured using a SpectraMax® 190 Microplate Reader. Cell proliferation was determined using MTS, colorimetric assay after” for “37° C. and 5% CO2 throughout”, “cells were treated for 48 hours in serum free media with the vehicle (DMSO) as control, resveratrol (RSV), nicotinamide (NAM), or a combination (RSV+NAM) in serum-free media under normoxia. […]” for “experiment.”

Oc1ccc(/C=C/c2cc(O)cc(O)c2)cc1 [RSV, 3,5,4′-trihydroxy-trans-stilbene]
Total proteins (number of proteins secreted) (hMSC secretome; Hypoxia (5% O2)): 55 | Unique vs control (number of unique proteins) (hMSC secretome; Hypoxia (5% O2)): 2 | number of down-regulated proteins (Fold ≤ 1.5) vs control (hMSC secretome; Hypoxia (5% O2)): 0 | number of up-regulated proteins (Fold ≥ 1.5) vs control (hMSC secretome; Hypoxia (5% O2)): 30 | Total proteins (number of proteins secreted) (hMSC secretome; Normoxia): 51 | Unique vs control (number of unique proteins) (hMSC secretome; Normoxia): 2 | number of down-regulated proteins (Fold ≤ 1.5) vs control (hMSC secretome; Normoxia): 3 | number of up-regulated proteins (Fold ≥ 1.5) vs control (hMSC secretome; Normoxia): 7 | cell proliferation (MTS) versus control [1]: not a significant difference

NC(=O)c1cccnc1 [nicotinamide]
cell proliferation (MTS) versus control [1]: not a significant difference
